{
  "source": "patent US20050054589A1",
  "about": "“Method for treating diseases using HSP90-inhibiting agents in combination with antibiotics” (Kosan Biosciences, Inc., priority 2003, published 2005)",
  "key": {"[1]": {"details": "clinical trials; twice-weekly regimen; cited from earlier work"}, "[2]": {"test_system": "DLD-1 cells (human colorectal cancer cells)", "details": "constant ratio of IC50s, CI<1 synergism, CI=1 additivity, CI>1 antagonism", "description": "(§1) Human colon adenocarcinoma cell line, DLD-1, and human breast adenocarcinoma cell line, SKBr-3, were obtained from American Type Culture Collection (manassas, VA). DLD-1 cells were maintained in RPMI 1640 medium supplemented with 10% fetal bovine serum, and SKBr-3 cells were cultured in McCoy's 5a medium supplemented with 10% fetal bovine serum. 17-DMAG and 17-AAG were obtained using published procedures. Other cytotoxic agents were purchased commercially from suppliers such as Sigma Chemical Co. (St. Louis, Mo.) and Sequoia Research Products (Oxford, UK).\n(§2) Cells were seeded in duplicate in 96-well microtiter plates at a density of 5,000 cells per well and allowed to attach overnight. […] Cell viability was determined using the MTS assay (Promega). For the drug combination assay, cells were seeded in duplicate in 96-well plates (5,000 cells/well). […] Cell viability was determined by the MTS assay.\n(§3) Synergism, additivity or antagonism was determined by median effect analysis using the combination index (CI) calculated using Calcusyn (Biosoft, Cambridge, UK). […] The quantities [Dx]1 and [Dx]2 represent the concentrations of the first and second drug, respectively, that when used alone provide a response of x % in the assay. […] The “enhancing” effect of two drugs can also be determined."}, "[3]": {"test_system": "SKBr cells (human breast cancer cells)", "test": "Cell viability (MTS) drug combination assay, combination index, SKBr-3 cells", "type": "cell-based", "details": "constant ratio of IC50s, CI<1 synergism", "description": "as §1, §2, §3"}, "[4]": {"details": "17-AAG 24 h before antibiotic, then 48 h"}, "[5]": {"details": "antibiotic alone 24 h, then 17-AAG for 48 h"}},
  "data": [
    {"smiles": "C=CCNC1=C2C[C@@H](C)C[C@H](OC)[C@H](O)[C@@H](C)/C=C(\\C)[C@H](OC(N)=O)[C@@H](OC)/C=C\\C=C(/C)C(=O)NC(=CC1=O)C2=O", "note": "[17-AAG, 17-(allylamino)-17-desmethoxygeldanamycin]", "values": [
      {"measurement": "MTD", "setting": "[1]", "result": "about 220 mg/m2"}
    ]},
    {"smiles": "COc1cccc2c1C(=O)c1c(O)c3c(c(O)c1C2=O)C[C@@](O)(C(=O)CO)C[C@@H]3O[C@H]1C[C@H](N)[C@H](O)[C@H](C)O1", "note": "[Doxorubicin, doxorubicin]", "values": [
      {"measurement": "CI value, combination with 17-AAG, 17-AAG Pre-Administration", "setting": "[2]; [4]", "result": "0.58 ± 0.15"},
      {"measurement": "CI value, combination with 17-AAG, 17-AAG Post-Administration", "setting": "[2]; [5]", "result": "0.82 ± 0.09"},
      {"measurement": "CI value, combination with 17-AAG, 17-AAG Pre-Administration", "setting": "[3]; [4]", "result": "0.81 ± 0.05"},
      {"measurement": "CI value, combination with 17-AAG, 17-AAG Post-Administration", "setting": "[3]; [5]", "result": "0.45 ± 0.12"}
    ]}
  ]
}
